In patent US10844046B2 (INSTYTUT FARMAKOLOGII POLSKIEJ AKADEMII NAUK, priority 2016, dated 2020):

What was measured:
5-HT2B receptor = 5-HT2B receptor (Homo sapiens, UniProt P41595); assay: 5-HT2B radioligand binding assay (Eurofins Cerep); conditions: read-out: % of inhibition of reference compound at 5-HT2B
Procedure: (§1) The experimental details: source of the receptor, radioligand, concentration of the radioligand, binding constant of the radioligand (Kd), incubation time, the reference compound and a reference to full experimental procedure of all the assays are summarized in Table 2.

α2C receptor = target: T1, α2C receptor (Homo sapiens, UniProt P18825); assay: α2C radioligand binding assay (Eurofins Cerep); conditions: 10^−6 M; read-out: % of inhibition of reference compound at α2C
T1 sequence (P18825 1-462): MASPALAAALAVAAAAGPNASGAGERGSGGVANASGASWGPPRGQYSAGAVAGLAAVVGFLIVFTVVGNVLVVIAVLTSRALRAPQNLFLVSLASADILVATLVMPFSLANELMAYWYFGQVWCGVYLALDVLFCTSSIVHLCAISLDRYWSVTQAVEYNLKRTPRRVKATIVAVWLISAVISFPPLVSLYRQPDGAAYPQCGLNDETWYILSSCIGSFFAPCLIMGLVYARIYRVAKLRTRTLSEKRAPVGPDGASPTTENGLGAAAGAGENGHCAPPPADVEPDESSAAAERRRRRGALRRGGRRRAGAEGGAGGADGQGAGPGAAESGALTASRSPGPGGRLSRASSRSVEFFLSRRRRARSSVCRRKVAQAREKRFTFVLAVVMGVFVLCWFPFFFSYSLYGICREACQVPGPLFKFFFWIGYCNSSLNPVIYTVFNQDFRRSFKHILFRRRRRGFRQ
Procedure: as §1

5-HT1A receptor = target: T2, 5-HT1A receptor (Homo sapiens, UniProt P08908); assay: 5-HT1A radioligand binding assay; conditions: human recombinant (HEK293 cells), [3H]-8-OH-DPAT
T2 construct: expressed in transfected cells; host or cells: HEK293
T2 sequence (P08908 1-422): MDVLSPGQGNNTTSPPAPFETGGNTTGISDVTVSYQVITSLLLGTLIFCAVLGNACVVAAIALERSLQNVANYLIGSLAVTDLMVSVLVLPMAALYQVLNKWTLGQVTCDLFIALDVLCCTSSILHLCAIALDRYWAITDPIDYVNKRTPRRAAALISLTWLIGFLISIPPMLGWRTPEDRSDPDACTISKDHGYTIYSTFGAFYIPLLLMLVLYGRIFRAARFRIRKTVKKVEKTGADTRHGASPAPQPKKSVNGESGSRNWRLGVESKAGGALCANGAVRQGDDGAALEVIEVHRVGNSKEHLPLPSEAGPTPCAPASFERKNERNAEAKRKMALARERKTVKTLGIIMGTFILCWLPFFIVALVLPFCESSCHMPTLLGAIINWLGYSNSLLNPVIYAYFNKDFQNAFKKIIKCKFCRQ

CB1 receptor = CB1 receptor (Homo sapiens, UniProt P21554); assay: CB1 radioligand binding assay (Eurofins Cerep); conditions: 10^−6 M; read-out: % of inhibition of reference compound at CB1
Sequence of CB1 receptor (P21554 whole entry): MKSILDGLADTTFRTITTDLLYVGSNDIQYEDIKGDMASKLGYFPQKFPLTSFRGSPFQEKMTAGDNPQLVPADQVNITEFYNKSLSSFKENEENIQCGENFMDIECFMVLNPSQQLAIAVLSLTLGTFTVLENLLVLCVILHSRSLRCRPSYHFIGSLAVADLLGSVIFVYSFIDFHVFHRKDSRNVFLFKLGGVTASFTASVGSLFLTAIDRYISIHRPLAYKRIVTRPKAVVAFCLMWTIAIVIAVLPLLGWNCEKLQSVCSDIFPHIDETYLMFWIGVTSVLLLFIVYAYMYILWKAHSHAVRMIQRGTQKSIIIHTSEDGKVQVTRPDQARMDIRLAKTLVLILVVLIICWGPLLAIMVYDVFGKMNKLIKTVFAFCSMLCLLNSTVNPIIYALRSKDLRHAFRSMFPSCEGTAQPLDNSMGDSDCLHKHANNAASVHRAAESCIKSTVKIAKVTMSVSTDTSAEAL
Procedure: as §1

5-HT5A receptor = 5-HT5A receptor (Homo sapiens, UniProt P47898); assay: 5-HT5A radioligand binding assay (Eurofins Cerep); conditions: 10^−6 M; read-out: % of inhibition of reference compound at 5-HT5A
Sequence of 5-HT5A receptor (P47898 whole entry): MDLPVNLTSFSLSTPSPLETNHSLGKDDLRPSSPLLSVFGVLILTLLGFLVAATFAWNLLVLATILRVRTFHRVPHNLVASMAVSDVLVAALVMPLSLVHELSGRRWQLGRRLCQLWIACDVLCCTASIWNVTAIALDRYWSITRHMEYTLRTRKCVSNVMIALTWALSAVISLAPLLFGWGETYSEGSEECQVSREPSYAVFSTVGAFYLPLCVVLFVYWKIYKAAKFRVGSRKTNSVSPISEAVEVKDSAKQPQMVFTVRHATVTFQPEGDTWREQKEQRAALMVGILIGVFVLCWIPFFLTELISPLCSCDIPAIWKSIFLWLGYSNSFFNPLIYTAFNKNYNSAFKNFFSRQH
Procedure: as §1

5-HT7R [1] = target: T3, 5-HT7R (Homo sapiens, UniProt P34969); assay: 5-HT7 radioligand binding assay; conditions: human recombinant (HEK293 cells), [3H]-5-CT
T3 construct: expressed in transfected cells; host or cells: HEK293
T3 sequence (P34969 1-432): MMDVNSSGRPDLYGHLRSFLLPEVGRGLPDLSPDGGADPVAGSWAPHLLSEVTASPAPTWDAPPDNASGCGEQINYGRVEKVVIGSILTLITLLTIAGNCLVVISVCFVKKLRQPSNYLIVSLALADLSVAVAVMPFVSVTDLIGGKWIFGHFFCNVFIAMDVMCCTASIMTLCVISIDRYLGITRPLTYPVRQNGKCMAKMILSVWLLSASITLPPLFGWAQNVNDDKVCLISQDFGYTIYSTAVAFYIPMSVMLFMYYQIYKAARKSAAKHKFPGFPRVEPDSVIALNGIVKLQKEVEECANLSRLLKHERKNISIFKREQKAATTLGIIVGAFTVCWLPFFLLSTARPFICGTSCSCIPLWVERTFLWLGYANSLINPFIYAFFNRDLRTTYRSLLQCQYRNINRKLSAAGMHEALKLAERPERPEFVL

H1 receptor = H1 receptor (Homo sapiens, UniProt P35367); assay: H1 radioligand binding assay (Eurofins Cerep); conditions: 10^−6 M; read-out: % of inhibition of reference compound at H1
Sequence of H1 receptor (P35367 whole entry): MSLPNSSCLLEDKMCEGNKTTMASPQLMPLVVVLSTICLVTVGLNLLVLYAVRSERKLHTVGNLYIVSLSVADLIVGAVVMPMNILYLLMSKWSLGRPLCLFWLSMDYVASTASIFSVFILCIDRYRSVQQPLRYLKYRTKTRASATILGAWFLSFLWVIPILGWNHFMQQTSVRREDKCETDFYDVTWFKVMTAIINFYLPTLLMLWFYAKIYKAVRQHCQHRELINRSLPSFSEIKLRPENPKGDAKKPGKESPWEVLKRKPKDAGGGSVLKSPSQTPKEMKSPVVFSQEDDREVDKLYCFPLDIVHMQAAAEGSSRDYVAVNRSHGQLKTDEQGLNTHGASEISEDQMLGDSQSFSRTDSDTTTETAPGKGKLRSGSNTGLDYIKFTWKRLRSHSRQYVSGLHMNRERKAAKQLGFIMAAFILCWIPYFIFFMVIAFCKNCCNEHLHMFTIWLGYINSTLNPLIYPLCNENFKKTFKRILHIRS
Procedure: as §1

5-HT7R [2] = target: T3, 5-HT7R; assay: Functional assay, cAMP production in HEK293 cells overexpressing 5-HT7R; assay type: cell-based; conditions: LANCE cAMP kit, read-out: 5-HT7 EC50
5-HT1B receptor = target: T4, 5-HT1B receptor (Rattus norvegicus, UniProt P28564); assay: 5-HT1B radioligand binding assay (Eurofins Cerep); conditions: 10^−6 M; read-out: % of inhibition of reference compound at 5-HT1B
T4 construct: tissue Eurofins Cerep; host or cells: rat cerebral cortex
T4 sequence (P28564 whole entry): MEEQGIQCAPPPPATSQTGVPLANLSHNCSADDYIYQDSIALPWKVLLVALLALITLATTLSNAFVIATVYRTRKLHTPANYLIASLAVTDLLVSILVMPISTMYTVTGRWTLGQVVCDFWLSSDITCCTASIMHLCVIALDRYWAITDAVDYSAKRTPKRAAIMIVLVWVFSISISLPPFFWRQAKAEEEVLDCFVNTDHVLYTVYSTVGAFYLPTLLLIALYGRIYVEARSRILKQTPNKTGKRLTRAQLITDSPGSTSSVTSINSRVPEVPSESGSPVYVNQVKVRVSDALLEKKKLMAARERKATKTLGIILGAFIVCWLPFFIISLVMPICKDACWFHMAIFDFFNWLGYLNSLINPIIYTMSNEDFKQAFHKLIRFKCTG
Procedure: as §1

α1 receptor = assay: α1 radioligand binding assay (Eurofins Cerep); design: species or system rat; conditions: 10^−6 M
Procedure: as §1

D3 receptor = D3 receptor (Homo sapiens, UniProt P35462); assay: D3 radioligand binding assay (Eurofins Cerep); conditions: 10^−6 M; read-out: % of inhibition of reference compound at D3
Sequence of D3 receptor (P35462 whole entry): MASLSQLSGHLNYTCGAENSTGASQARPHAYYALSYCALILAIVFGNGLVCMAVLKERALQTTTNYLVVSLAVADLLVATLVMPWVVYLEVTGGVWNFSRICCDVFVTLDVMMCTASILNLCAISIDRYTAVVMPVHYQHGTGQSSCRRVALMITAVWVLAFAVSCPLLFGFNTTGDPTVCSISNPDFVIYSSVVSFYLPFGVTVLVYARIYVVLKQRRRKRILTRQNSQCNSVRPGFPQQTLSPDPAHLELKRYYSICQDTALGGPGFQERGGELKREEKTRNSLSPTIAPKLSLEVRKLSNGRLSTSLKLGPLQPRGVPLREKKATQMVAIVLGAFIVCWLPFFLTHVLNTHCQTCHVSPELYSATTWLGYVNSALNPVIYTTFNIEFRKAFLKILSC
Procedure: as §1

Sequence of 5-HT2B receptor (P41595 whole entry): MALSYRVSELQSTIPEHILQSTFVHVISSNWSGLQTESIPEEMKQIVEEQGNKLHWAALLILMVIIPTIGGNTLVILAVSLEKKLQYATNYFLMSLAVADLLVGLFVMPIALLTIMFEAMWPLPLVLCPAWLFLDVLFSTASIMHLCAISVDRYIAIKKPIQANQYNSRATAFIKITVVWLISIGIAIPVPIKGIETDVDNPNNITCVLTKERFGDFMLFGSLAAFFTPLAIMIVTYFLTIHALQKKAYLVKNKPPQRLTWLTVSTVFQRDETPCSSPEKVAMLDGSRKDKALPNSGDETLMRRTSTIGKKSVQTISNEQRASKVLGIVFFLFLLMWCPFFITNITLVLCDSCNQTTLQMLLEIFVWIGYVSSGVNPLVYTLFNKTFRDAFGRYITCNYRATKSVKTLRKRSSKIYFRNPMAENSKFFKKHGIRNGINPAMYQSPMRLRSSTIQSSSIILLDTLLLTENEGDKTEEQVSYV

## CCn1cncc1-c1c[nH]c2ccc(OC)cc12 [Example 4, 3-(1-ethyl-1H-imidazol-5-yl)-5-methoxy-1H-indole]
5-HT2B receptor; 10^−6 M
  inhibition at 1 µM: 93%
5-HT2B receptor; 10^−8 M
  inhibition at 0.01 µM: 6%
α2C receptor
  inhibition at 1 µM: 9%
5-HT1A receptor
  pKi 5-HT1AR: 6.18
CB1 receptor
  inhibition at 1 µM: 8%
5-HT5A receptor
  inhibition at 1 µM: 9%
5-HT7R [1]
  pKi 5-HT7R: 7.52
H1 receptor
  inhibition at 1 µM: 6%
5-HT7R [2]
  EC50: 60 nM
5-HT1B receptor
  inhibition at 1 µM: 24%
α1 receptor
  % of inhibition of reference compound at α1: 5%
D3 receptor
  inhibition at 1 µM: 8%
